The results in this text go back to US20260055079A1, “PHTHALAZINONE COMPOUNDS AS PARP7 INHIBITORS” (AZKARRA THERAPEUTICS, INC., priority 2022, published 2026).

Like-named read-outs stand apart in the source and are kept apart here.

One assay deals with His-GST-PARP7 (Homo sapiens (Human), UniProt Q7Z3E1). The assay is described as follows: PARP7 biochemical assay. The following applies: read-out: PARP7 IC50.
The next assay concerns the target PARP2 (Homo sapiens (Human), UniProt Q9UGN5). The assay is described as follows: PARP2 biochemical assay.
Assay [1] relates to NCI-H1373 (human lung adenocarcinoma) cells. The assay is described as follows: Cell proliferation assay (CellTiter-Glo), NCI-H1373. It is filed as cell-based. The following applies: 6 days, CellTiter-Glo, read-out: NCI-H1373 GI50. (Cellular ATP, detected with luciferase, serves as a proxy for viable cell number.)
The test system of assay [2] is HARA (human lung squamous cell carcinoma) cells. The experiment in a line: Cell proliferation assay (CellTiter-Glo), HARA. The following applies: 6 days, CellTiter-Glo, read-out: HARA GI50. It is filed as cell-based.

His-GST-PARP7, sequence (Q7Z3E1 whole entry): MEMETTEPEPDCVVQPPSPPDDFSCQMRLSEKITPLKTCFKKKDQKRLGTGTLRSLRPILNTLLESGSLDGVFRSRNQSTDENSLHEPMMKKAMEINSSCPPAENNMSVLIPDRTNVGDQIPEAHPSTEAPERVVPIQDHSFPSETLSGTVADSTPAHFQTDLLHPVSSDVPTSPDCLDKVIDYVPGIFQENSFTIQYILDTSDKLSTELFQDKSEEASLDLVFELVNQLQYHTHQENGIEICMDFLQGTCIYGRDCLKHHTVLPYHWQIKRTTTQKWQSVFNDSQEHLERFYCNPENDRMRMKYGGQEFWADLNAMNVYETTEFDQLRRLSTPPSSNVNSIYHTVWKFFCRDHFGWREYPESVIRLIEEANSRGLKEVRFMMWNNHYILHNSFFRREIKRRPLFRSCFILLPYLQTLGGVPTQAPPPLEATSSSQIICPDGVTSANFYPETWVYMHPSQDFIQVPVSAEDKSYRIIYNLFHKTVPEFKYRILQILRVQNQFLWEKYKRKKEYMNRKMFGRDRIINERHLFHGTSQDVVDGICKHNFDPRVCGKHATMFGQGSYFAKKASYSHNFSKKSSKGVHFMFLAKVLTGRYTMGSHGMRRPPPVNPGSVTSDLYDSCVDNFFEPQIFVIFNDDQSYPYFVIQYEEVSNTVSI
PARP2, sequence (Q9UGN5 whole entry): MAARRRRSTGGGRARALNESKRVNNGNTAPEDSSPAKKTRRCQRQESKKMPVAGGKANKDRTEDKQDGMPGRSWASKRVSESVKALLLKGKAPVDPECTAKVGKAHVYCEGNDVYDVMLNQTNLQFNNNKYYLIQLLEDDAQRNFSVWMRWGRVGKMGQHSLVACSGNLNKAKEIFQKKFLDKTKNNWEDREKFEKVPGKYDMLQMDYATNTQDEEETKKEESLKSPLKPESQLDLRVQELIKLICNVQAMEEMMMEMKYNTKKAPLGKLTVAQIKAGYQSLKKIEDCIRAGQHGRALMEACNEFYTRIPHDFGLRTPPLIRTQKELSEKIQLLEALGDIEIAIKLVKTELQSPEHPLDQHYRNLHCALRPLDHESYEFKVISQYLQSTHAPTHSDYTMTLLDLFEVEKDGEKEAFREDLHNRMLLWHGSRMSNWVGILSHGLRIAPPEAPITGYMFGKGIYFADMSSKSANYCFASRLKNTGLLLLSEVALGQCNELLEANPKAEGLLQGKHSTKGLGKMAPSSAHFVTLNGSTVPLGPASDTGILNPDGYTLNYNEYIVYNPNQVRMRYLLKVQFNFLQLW

In general, IC50 refers to the point on the concentration scale where inhibition reaches its midpoint. Take `CC#Cc1ccc2c(=O)[nH]nc(Cc3ccc(F)c(C(=O)N(C)CCN(CC)c4ccc(C#N)cn4)c3)c2c1` [Example 198, N-(2-((5-Cyanopyridin-2-yl)(ethyl)amino)ethyl)-2-fluoro-N-methyl-5-((4-oxo-7-(prop-1-yn-1-yl)-3,4-dihydrophthalazin-1-yl)methyl)benzamide]: the IC50 is below 50 nM on His-GST-PARP7 and above 2000 nM at PARP2 (read-out: PARP2 IC50).

Take `N#Cc1ccc(N2CCN(C(=O)c3cc(Cc4n[nH]c(=O)c5ccc(CCC(F)(F)F)cc45)ccc3F)CC2)nc1` [Example 25, 6-(4-(2-Fluoro-5-((4-oxo-7-(3,3,3-trifluoropropyl)-3,4-dihydrophthalazin-1-yl)methyl)benzoyl)piperazin-1-yl)nicotinonitrile]: the IC50 at PARP2 (read-out: PARP2 IC50) lay in the range of 100 to 500 nM.

With `CC(C)(C)Cc1ccc2c(=O)[nH]nc(Cc3ccc(F)c(C(=O)N4CCN(c5ccc(C#N)cn5)CC4)c3)c2c1` [Example 41, 6-(4-(2-Fluoro-5-((7-neopentyl-4-oxo-3,4-dihydrophthalazin-1-yl)methyl)benzoyl)piperazin-1-yl)nicotinonitrile], the IC50 at His-GST-PARP7 and on PARP2 (read-out: PARP2 IC50) was 100 to 500 nM in each case.

For the molecule `CN(C)CC#Cc1ccc2c(=O)[nH]nc(Cc3ccc(F)c(C(=O)N4CCN(c5ncc(C(F)(F)F)cn5)CC4)c3)c2c1` [Example 46, 6-(3-(Dimethylamino)prop-1-yn-1-yl)-4-(4-fluoro-3-(4-(5-(trifluoromethyl)pyrimidin-2-yl)piperazine-1-carbonyl)benzyl)phthalazin-1(2H)-one], the concentration for half-maximal inhibition (IC50) on His-GST-PARP7 is below 50 nM; at PARP2 (read-out: PARP2 IC50), 100 to 500 nM.

Regarding `CC#Cc1ccc2c(=O)[nH]nc(Cc3ccc(F)c(C(=O)N4CCN(c5ccc(C#N)cn5)CC4C)c3)c2c1` (stereo not shown) [Example 61, 6-(4-(2-Fluoro-5-((4-oxo-7-(prop-1-yn-1-yl)-3,4-dihydrophthalazin-1-yl)methyl)benzoyl)-3-methylpiperazin-1-yl)nicotinonitrile], the IC50 on His-GST-PARP7 and on PARP2 (read-out: PARP2 IC50) was below 50 nM throughout.

In the case of `CC#Cc1ccc2c(=O)[nH]nc(Cc3ccc(F)c(C(=O)N4C5CCC4CN(c4ccc(C#N)cn4)C5)c3)c2c1` [Example 62, 6-(8-(2-Fluoro-5-((4-oxo-7-(prop-1-yn-1-yl)-3,4-dihydrophthalazin-1-yl)methyl)benzoyl)-3,8-diazabicyclo[3.2.1]octan-3-yl)nicotinonitrile], the half-maximal inhibitory concentration (IC50) on His-GST-PARP7 is below 50 nM; at PARP2, 500 to 2000 nM.

As usually defined, the GI50 is the concentration that inhibits growth by half. With `CC#Cc1ccc2c(=O)[nH]nc(Cc3ccc(F)c(C(=O)N4CCN(c5cc(C(=O)NC)ccn5)CC4)c3)c2c1` [Example 56, 2-(4-(2-Fluoro-5-((4-oxo-7-(prop-1-ynyl)-3,4-dihydrophthalazin-1-yl)methyl)benzoyl)piperazin-1-yl)-N-methylisonicotinamide], at His-GST-PARP7, the IC50 was below 50 nM. The GI50 was 100 to 1000 nM in assay [1] (Homo sapiens, NCI-H1373, 144 h) and above 5000 nM in assay [2] (Homo sapiens, 144 h).

Turning to `O=C(c1cc(Cc2n[nH]c(=O)c3ccc(OC4CCC4)cc23)ccc1F)N1CCCN(C(=O)C2CC2)CC1` [Example 101, 6-Cyclobutoxy-4-(3-(4-(cyclopropanecarbonyl)-1,4-diazepane-1-carbonyl)-4-fluorobenzyl)phthalazin-1(2H)-one], the IC50 on His-GST-PARP7 is below 50 nM. Besides, the GI50 in assay [1] (Homo sapiens, NCI-H1373, 144 h) was above 5000 nM; in assay [2] (Homo sapiens, 144 h) it was above 5000 nM.

`O=C(c1cc(Cc2n[nH]c(=O)c3ccc(C#CC(F)(F)F)cc23)ccc1F)N1CCN(c2ncc(C(F)(F)F)cn2)CC1` [Example 49, 4-(4-Fluoro-3-(4-(5-(trifluoromethyl)pyrimidin-2-yl)piperazine-1-carbonyl)benzyl)-6-(3,3,3-trifluoroprop-1-yn-1-yl)phthalazin-1(2H)-one]: the IC50 at His-GST-PARP7 and on PARP2 (read-out: PARP2 IC50) was 100 to 500 nM each time.

As to `O=C(c1cc(Cc2n[nH]c(=O)c3ccc(OC4CCC4)cc23)ccc1F)N1CCN(c2ncc(C(F)(F)F)cn2)CC(F)(F)C1` [Example 126, 6-Cyclobutoxy-4-(3-(6,6-difluoro-4-(5-(trifluoromethyl)pyrimidin-2-yl)-1,4-diazepane-1-carbonyl)-4-fluorobenzyl)phthalazin-1(2H)-one], the half-maximal inhibitory concentration (IC50) at His-GST-PARP7 was below 50 nM. Moreover, the GI50 in assay [1] (Homo sapiens, NCI-H1373, 144 h) is 100 to 1000 nM; in assay [2] (Homo sapiens, 144 h) it was above 5000 nM.

Regarding `N#Cc1ccc(N2CCN(C(=O)c3cc(Cc4n[nH]c(=O)c5ccc(C#CC6CC6)cc45)ccc3F)CC2)nc1` [Example 37, 6-(4-(5-((7-(Cyclopropylethynyl)-4-oxo-3,4-dihydrophthalazin-1-yl)methyl)-2-fluorobenzoyl)piperazin-1-yl)nicotinonitrile], the IC50 lay in the range of 100 to 500 nM on His-GST-PARP7 and 500 to 2000 nM at PARP2 (read-out: PARP2 IC50).

Take `Cc1nc(N2CCN(C(=O)c3cc(Cc4n[nH]c(=O)c5ccc(OC6CCC6)cc45)ccc3F)CC2)ccc1C#N` [Example 133, 6-(4-(5-((7-cyclobutoxy-4-oxo-3,4-dihydrophthalazin-1-yl)methyl)-2-fluorobenzoyl)piperazin-1-yl)-2-methylnicotinonitrile]: at His-GST-PARP7, the IC50 is below 50 nM. Moreover, the GI50 was 100 to 1000 nM in assay [1] (Homo sapiens, NCI-H1373, 144 h) and above 5000 nM in assay [2] (Homo sapiens, 144 h).

As to `CC#Cc1ccc2c(=O)[nH]nc(Cc3ccc(F)c(C(=O)N4CCN(c5ccc(C#N)cn5)C(C)C4)c3)c2c1` (stereo not shown) [Example 72, 6-(4-(2-Fluoro-5-((4-oxo-7-(prop-1-ynyl)-3,4-dihydrophthalazin-1-yl)methyl)benzoyl)-2-methylpiperazin-1-yl)nicotinonitrile], the IC50 is below 50 nM at His-GST-PARP7 and 100 to 500 nM at PARP2 (read-out: PARP2 IC50).

In the case of `O=C(c1cc(Cc2n[nH]c(=O)c3ccc(OC4CCC4)cc23)ccc1F)N1CCCN(c2ncc(C(F)(F)F)cn2)CC1` [Example 98, 6-Cyclobutoxy-4-(4-fluoro-3-(4-(5-(trifluoromethyl)pyrimidin-2-yl)-1,4-diazepane-1-carbonyl)benzyl)phthalazin-1(2H)-one], the half-inhibitory concentration (IC50) on His-GST-PARP7 is below 50 nM. Besides, the GI50 is 100 to 1000 nM in assay [1] (Homo sapiens, NCI-H1373, 144 h) and above 5000 nM in assay [2] (Homo sapiens, 144 h).

For `N#Cc1ccc(N2CCN(c3noc4ccc(Cc5n[nH]c(=O)c6ccc(OC7CCC7)cc56)cc34)CC2)nc1` [Example 211, 6-(4-(5-((7-cyclobutoxy-4-oxo-3,4-dihydrophthalazin-1-yl)methyl)benzo[d]isoxazol-3-yl)piperazin-1-yl)nicotinonitrile], on His-GST-PARP7, the IC50 was 100 to 500 nM. In addition, the GI50 was 1000 to 5000 nM in assay [1] (Homo sapiens, NCI-H1373, 144 h) and 1000 to 5000 nM in assay [2] (Homo sapiens, 144 h).

Turning to “6-(4-(5-((7-Cyclobutoxy-4-oxo-3,4-dihydrophthalazin-1-yl)methyl)-2-fluorobenzoyl)-6,6-difluoro-1,4-diazepan-1-yl)nicotinonitrile [Example 125]”, at His-GST-PARP7, the IC50 is below 50 nM. The GI50 was 100 to 1000 nM in assay [1] and above 5000 nM in assay [2].

As to `N#Cc1cnc(N2CCN(C(=O)c3cc(Cc4n[nH]c(=O)c5ccc(OC6CCC6)cc45)ccc3F)CC2)c(C(F)(F)F)c1` [Example 129, 6-(4-(5-((7-cyclobutoxy-4-oxo-3,4-dihydrophthalazin-1-yl)methyl)-2-fluorobenzoyl)piperazin-1-yl)-5-(trifluoromethyl)nicotinonitrile], the IC50 on His-GST-PARP7 was below 50 nM. In addition, the GI50 in assay [1] (Homo sapiens, NCI-H1373, 144 h) fell in the range of 1000 to 5000 nM; in assay [2] (Homo sapiens, 144 h), 1000 to 5000 nM.

As to `O=C(c1cc(Cc2n[nH]c(=O)c3ccc(OC4CCC4)cc23)ccc1F)N1CCN(c2ccc(CO)cn2)CC1` [Example 130, 6-cyclobutoxy-4-(4-fluoro-3-(4-(5-(hydroxymethyl)pyridin-2-yl)piperazine-1-carbonyl)benzyl)phthalazin-1(2H)-one], the IC50 at His-GST-PARP7 is below 50 nM. In addition, the 50% growth inhibitory concentration (GI50) in assay [1] (Homo sapiens, NCI-H1373, 144 h) is 100 to 1000 nM; in assay [2] (Homo sapiens, 144 h) it was above 5000 nM.

With `CC(CC(=O)N1CCN(c2ccc(C#N)cn2)CC1)NCc1n[nH]c(=O)c2ccc(OC3CC3)cc12` (stereo not shown) [Example 196, 6-(4-(3-(((7-Cyclopropoxy-4-oxo-3,4-dihydrophthalazin-1-yl)methyl)amino)butanoyl)piperazin-1-yl)nicotinonitrile], on His-GST-PARP7, the IC50 is below 50 nM. Further, the GI50 in assay [1] (Homo sapiens, NCI-H1373, 144 h) lay in the range of 1000 to 5000 nM; in assay [2] (Homo sapiens, 144 h), 1000 to 5000 nM.

With `CCc1ccc2c(=O)[nH]nc(Cc3ccc(F)c(C(=O)N4CCN(c5ncc(C(F)(F)F)cn5)CC4)c3)c2c1` [Example 43, 6-Ethyl-4-(4-fluoro-3-(4-(5-(trifluoromethyl)pyrimidin-2-yl)piperazine-1-carbonyl)benzyl)phthalazin-1(2H)-one], on PARP2 (read-out: PARP2 IC50), the half-maximal inhibitory concentration (IC50) lay in the range of 100 to 500 nM.

For the molecule `O=C(c1cc(Cc2n[nH]c(=O)c3ccc(OC4CCC4)cc23)ccc1F)N1CCN(c2cnc(C(F)(F)F)cn2)CC1` [Example 160, 6-cyclobutoxy-4-(4-fluoro-3-(4-(5-(trifluoromethyl)pyrazin-2-yl)piperazine-1-carbonyl)benzyl)phthalazin-1(2H)-one], the IC50 on His-GST-PARP7 is below 50 nM. For the same molecule, the GI50 is below 100 nM in assay [1] (Homo sapiens, NCI-H1373, 144 h) and 1000 to 5000 nM in assay [2] (Homo sapiens, 144 h).

On PARP2, `N#Cc1ccc(N2CCN(C(=O)c3cc(Cc4n[nH]c(=O)c5ccc(/C=C/C(F)(F)F)cc45)ccc3F)CC2)nc1` [Example 27, (E)-6-(4-(2-Fluoro-5-((4-oxo-7-(3,3,3-trifluoroprop-1-enyl)-3,4-dihydrophthalazin-1-yl)methyl)benzoyl)piperazin-1-yl)nicotinonitrile] had an IC50 of 50 to 100 nM.

With `N#Cc1ccc(N2CCN(C(=O)c3cc(Cc4n[nH]c(=O)c5cccnc45)ccc3F)CC2)nc1` [Example 92, 6-(4-(2-Fluoro-5-((5-oxo-5,6-dihydropyrido[2,3-d]pyridazin-8-yl)methyl)benzoyl)piperazin-1-yl)nicotinonitrile], the IC50 at His-GST-PARP7 fell in the range of 50 to 100 nM. The GI50 in assay [1] (Homo sapiens, NCI-H1373, 144 h) was above 5000 nM; in assay [2] (Homo sapiens, 144 h), above 5000 nM.

Consider `O=C(c1cc(Cc2n[nH]c(=O)c3ccc(OC4CCC4)cc23)ccc1F)N1CCN(c2ccc(C(F)(F)F)cn2)CC1` [Example 155, 6-cyclobutoxy-4-(4-fluoro-3-(4-(5-(trifluoromethyl)pyridin-2-yl)piperazine-1-carbonyl)benzyl)phthalazin-1(2H)-one], for which, on His-GST-PARP7, the IC50 is below 50 nM. In addition, the GI50 in assay [1] (Homo sapiens, NCI-H1373, 144 h) was below 100 nM; in assay [2] (Homo sapiens, 144 h) it was 1000 to 5000 nM.
